Article PMC10821532, “Sex and Cross-Sex Testosterone Treatment Alters Gamma-Hydroxybutyrate Acid Toxicokinetics and Toxicodynamics in Rats” (Pharmaceutics, 2024)
Read-outs that look alike come from different tables or passages of the source.

Experiment: GHB toxicokinetic study, i.v. bolus, plasma and urine up to 8 h, noncompartmental analysis
Assay type: in vivo, Sprague Dawley rats
Settings: for clearance / CL renal: Sprague Dawley, rat, iv; for CL renal: read-out: CLR - Renal clearance
Experimental: Male and female Sprague Dawley (SD) rats, ovariectomized (OVX) females, and castrated (CST) males were obtained from Charles River (Wilmington, MA, USA) at 8 weeks of age. The animals were housed under controlled temperature and humidity with an artificial 12 h light/dark cycle, and food and water were available ad libitum. The animals were acclimatized for at least one week before experiments. Hormone treatment was conducted by implanting OVX female and CST male rats subcutaneously with 60-day release pellets containing 7.5 mg testosterone or corresponding placebo pellets (Innovative Research of America) at 10 weeks of age. After 21 days of hormone exposure, rats were utilized in toxicokinetic studies. Age-matched male and female rats were used as control groups. Female rats in the estrus stage were selected for the study. Estrus cycle stages of female rats were monitored daily by vaginal lavage smear, as described in previously published literature. The Institutional Animal Care and Use Committee (IACUC) at the University of the Pacific approved all experiments.
Jugular vein cannulas were surgically implanted under anesthesia with ketamine/xylazine. Cannulas were flushed daily with heparinized saline to maintain patency. Rats were allowed a minimum of 72 h for recovery from surgery before the experiments were conducted. GHB was administered intravenously as a 1000 mg/kg i.v. bolus or 1500 mg/kg iv bolus with or without AR-C155858 (1 mg/kg i.v. bolus) via a jugular vein cannula to the animals at 13 weeks of age (N = 5–7 per group). Rats were dosed in metabolic cages with ad libitum access to water to allow for the concurrent collection of blood and urine samples for up to 8 h. GHB was administered as a 300 mg/mL solution in sterile water, and the time of administration was considered as time 0. AR-C155858 was administered as a 1 mg/mL solution in 10% cyclodextrin in normal saline 5 min after GHB administration. Blood samples (200 μL) were taken from the jugular vein cannula at different time points: 5, 10, 20, 30, 60, 90, 120, 180, 240, 270, 300, and 330 min for 1000 mg/kg and 10, 30, 60, 90, 120, 180, 240, 270, 300, 330, 360, and 390/480 min for 1500 mg/kg bolus with or without AR-C155858. Plasma samples were separated by centrifugation and stored at −20 °C. Urine samples were collected at 120, 240, and 360 min for 1000 mg/kg and 120, 240, and 390/480 min for 1500 mg/kg bolus with or without AR-C155858 post-dose; the total urine volume was determined, and the samples were stored at −20 °C.
GHB in plasma and urine were quantified using a validated liquid chromatography/tandem mass spectrometry (LC/MS/MS) assay that was described previously. Briefly, for the preparation of plasma standards and quality controls (QCs), 5 μL of GHB-d6 and 5 μL of standard stock solution or QC stock solution were added to 45 μL of blank plasma. For each unknown plasma sample, 5 μL of GHB-d6 was added to 50 μL of plasma. Protein precipitation was then performed by the addition of 800 μL of acetonitrile with 0.1% formic acid, followed by centrifugation at 10,000 rpm for 20 min. 750 μL of the supernatant was transferred to a clean disposable glass tube and evaporated using a MultiVap Nitrogen Evaporator (Organomation, Berlin, MA, USA) under a nitrogen stream. Dried samples were reconstituted in 250 μL of 95:5 double-distilled water—acetonitrile with 0.1% acetic acid. For urine standards and QCs, 25 μL of blank urine, 5 μL of standard or QC stock solution, 5 μL of GHB-d6, and 465 μL of double-distilled water were mixed. For unknown urine samples, 25 μL of the sample was added to 5 μL of GHB-d6 and 470 μL of double-distilled water. The same LC/MS/MS method was used for GHB plasma and urine analyses. LC/MS/MS equipment consisted of an Agilent 1200 series UPLC consisting of an online degasser, binary pump, and autosampler (Agilent Technologies, Santa Clara, CA, USA) connected to a Agilent 6460 Triple Quad Mass Spectrometer. […]

[1] = 1000 mg/kg GHB iv, OVX testosterone rats
[2] = 1000 mg/kg GHB iv, intact female (estrus) rats
[3] = 1000 mg/kg GHB iv, intact male rats
[4] = 1500 mg/kg GHB + 1mg/kg AR-C 155858 iv, CST testosterone placebo rats
[5] = 1500 mg/kg GHB + 1mg/kg AR-C 155858 iv, CST testosterone rats
[6] = 1500 mg/kg GHB + 1mg/kg AR-C 155858 iv, OVX testosterone placebo rats
[7] = 1500 mg/kg GHB + 1mg/kg AR-C 155858 iv, OVX testosterone rats
[8] = 1500 mg/kg GHB + 1mg/kg AR-C 155858 iv, intact female (estrus) rats
[9] = 1500 mg/kg GHB + 1mg/kg AR-C 155858 iv, intact male rats
[10] = 1500 mg/kg GHB iv, CST testosterone placebo rats
[11] = 1500 mg/kg GHB iv, CST testosterone rats
[12] = 1500 mg/kg GHB iv, OVX testosterone placebo rats
[13] = 1500 mg/kg GHB iv, OVX testosterone rats
[14] = 1500 mg/kg GHB iv, intact female (estrus) rats
[15] = 1500 mg/kg GHB iv, intact male rats

O=C(O)CCCO [GHB, Γ-hydroxybutyric acid]
AUC - Area under the curve of plasma concentration versus time profile (1000 mg/kg GHB iv, CST testosterone placebo rats): 222 ± 40.7 mg·min/mL
AUC - Area under the curve of plasma concentration versus time profile (1000 mg/kg GHB iv, CST testosterone rats): 197 ± 35.5 mg·min/mL
AUC - Area under the curve of plasma concentration versus time profile (1000 mg/kg GHB iv, OVX testosterone placebo rats): 181 ± 10.6 mg·min/mL
AUC - Area under the curve of plasma concentration versus time profile [1]: 169 ± 25.9 mg·min/mL
CL - Total clearance [1]: 6.0 ± 0.8 mL/min/kg
AUC - Area under the curve of plasma concentration versus time profile [2]: 150 ± 16.6 mg·min/mL
fe – The fraction of drug eliminated from urine [2]: 0.39 ± 0.07
AUC - Area under the curve of plasma concentration versus time profile [3]: 224 ± 39.8 mg·min/mL
fe – The fraction of drug eliminated from urine [3]: 0.48 ± 0.06
AUC [4]: 195 ± 29.6 mg·min/mL
fe (fraction of drug eliminated in urine) [4]: 0.69 ± 0.13
AUC [5]: 207 ± 40.4 mg·min/mL
fe (fraction of drug eliminated in urine) [5]: 0.74 ± 0.03
AUC [6]: 162 ± 34.8 mg·min/mL
fe (fraction of drug eliminated in urine) [6]: 0.73 ± 0.05
AUC [7]: 163 ± 24.9 mg·min/mL
fe (fraction of drug eliminated in urine) [7]: 0.75 ± 0.09
AUC [8]: 184 ± 36.3 mg·min/mL
fe (fraction of drug eliminated in urine) [8]: 0.73 ± 0.07
AUC [9]: 185 ± 13.2 mg·min/mL
fe (fraction of drug eliminated in urine) [9]: 0.74 ± 0.03
AUC [10]: 309 ± 23.8 mg·min/mL
fe (fraction of drug eliminated in urine) [10]: 0.60 ± 0.05
AUC [11]: 496 ± 97.6 mg·min/mL
fe (fraction of drug eliminated in urine) [11]: 0.44 ± 0.09
AUC [12]: 271 ± 47.0 mg·min/mL
fe (fraction of drug eliminated in urine) [12]: 0.62 ± 0.08
AUC [13]: 290 ± 122.7 mg·min/mL
CL (total clearance) [13]: 6.1 ± 2.4 mL/min/kg
fe (fraction of drug eliminated in urine) [13]: 0.41 ± 0.09
AUC [14]: 336 ± 78.8 mg·min/mL
fe (fraction of drug eliminated in urine) [14]: 0.78 ± 0.12
AUC [15]: 343 ± 117.8 mg·min/mL
fe (fraction of drug eliminated in urine) [15]: 0.87 ± 0.07
clearance (both sexes, plasma, 1500 mg/kg, 1500 mg/kg GHB iv, animal groups other than testosterone-treated OVX rats, read-out: Metabolic clearance, other animal groups): < 2.2 mL/min/kg
CL renal (female, plasma and urine, 1000 mg/kg, 1000 mg/kg GHB iv, OVX testosterone placebo rats): 2.4 ± 0.1 mL/min/kg
clearance (female, plasma and urine, 1000 mg/kg, 1000 mg/kg GHB iv, OVX testosterone placebo rats, read-out: CLm – Metabolic clearance): 3.1 ± 0.3 mL/min/kg
CL renal (female, plasma and urine, 1000 mg/kg, 1000 mg/kg GHB iv, OVX testosterone rats): 2.4 ± 0.7 mL/min/kg
clearance (female, plasma and urine, 1000 mg/kg, 1000 mg/kg GHB iv, OVX testosterone rats, read-out: CLm – Metabolic clearance): 3.6 ± 0.6 mL/min/kg
CL renal (female, plasma and urine, 1000 mg/kg, 1000 mg/kg GHB iv, intact female (estrus) rats): 2.6 ± 0.5 mL/min/kg
